The experiment deals with T1, Wee1 kinase domain (Homo sapiens, UniProt P30291).
T1 construct: Wee1 kinase domain was purchased from Carna (catalog #05-177); purchased Carna 05-177
T1 sequence (P30291 299-569 limits assumed): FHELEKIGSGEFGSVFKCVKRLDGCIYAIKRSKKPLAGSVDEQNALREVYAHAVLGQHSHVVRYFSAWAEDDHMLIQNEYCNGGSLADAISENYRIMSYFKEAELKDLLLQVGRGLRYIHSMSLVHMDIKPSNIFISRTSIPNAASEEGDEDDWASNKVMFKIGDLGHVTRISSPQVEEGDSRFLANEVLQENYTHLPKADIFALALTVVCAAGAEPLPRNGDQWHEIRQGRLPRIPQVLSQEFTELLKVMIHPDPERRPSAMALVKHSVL
Kind of experiment: Wee1 Kinase Biochemical Assay (ADP-Glo). To be noted: class symbols; 1 nM Wee1 enzyme, 15 uM ATP, 4 hours at 25° C. Put shortly:
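Poly(Lys,Tyr 4:1) phosphorylation by the kinase domain is followed as ADP output (ADP-Glo) after 4 h at 25 °C, with ATP at 15 uM. Values are percent inhibition between vehicle and full-inhibition controls.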
(ADP-Glo turns the ADP formed in a reaction into a luminescent signal.)
On to `CN1CC[C@H](c2ccc(Nc3ncc4c(n3)N(c3cccc(N5CCCC5=O)n3)[C@H]3CC(C)(C)OC[C@@]43C)cc2)C1` [Example 635, 1-(6-((4bS,8aS)-4b,7,7-trimethyl-2-((4-((R)-1-methylpyrrolidin-3-yl)phenyl)amino)-4b,7,8,8a-tetrahydropyrano[3′,4′:4,5]pyrrolo[2,3-d]pyrimidin-9(5H)-yl)pyridin-2-yl)pyrrolidin-2-one], for which the half-maximal inhibitory concentration (IC50) lay within 0.01 to 0.1 µM. The value for `CC1(C)C[C@@H]2N(c3cccc(N4CCCC4=O)n3)c3nc(Nc4ccc([C@H]5CCNC5)cc4)ncc3[C@]2(C)CO1` [Example 637, 1-(6-((4bS,8aS)-4b,7,7-trimethyl-2-((4-((R)-pyrrolidin-3-yl)phenyl)amino)-4b,7,8,8a-tetrahydropyrano[3′,4′:4,5]pyrrolo[2,3-d]pyrimidin-9(5H)-yl)pyridin-2-yl)pyrrolidin-2-one] was 0.01 to 0.1 µM. Next, `CN1C[C@H]2C[C@@H]1CN2c1ccc(Nc2ncc3c(n2)N(c2cccc(N4CCCC4=O)n2)[C@H]2CC(C)(C)OC[C@@]32C)cc1F` [Example 639, 1-(6-((4bS,8aS)-2-((3-fluoro-4-((1R,4R)-5-methyl-2,5-diazabicyclo[2.2.1]heptan-2-yl)phenyl)amino)-4b,7,7-trimethyl-4b,7,8,8a-tetrahydropyrano[3′,4′:4,5]pyrrolo[2,3-d]pyrimidin-9(5H)-yl)pyridin-2-yl)pyrrolidin-2-one]: 0.01 to 0.1 µM; `CN1C[C@@H]2C[C@H]1CN2c1ccc(Nc2ncc3c(n2)N(c2cccc(N4CCCC4=O)n2)[C@H]2CC(C)(C)OC[C@@]32C)cc1F` [Example 641, 1-(6-((4bS,8aS)-2-((3-fluoro-4-((1S,4S)-5-methyl-2,5-diazabicyclo[2.2.1]heptan-2-yl)phenyl)amino)-4b,7,7-trimethyl-4b,7,8,8a-tetrahydropyrano[3′,4′:4,5]pyrrolo[2,3-d]pyrimidin-9(5H)-yl)pyridin-2-yl)pyrrolidin-2-one]: 0.1 to 1 µM; `CN1CC[C@@H](c2ccc(Nc3ncc4c(n3)N(c3cccc(N5CCCC5=O)n3)[C@H]3CC(C)(C)OC[C@@]43C)cc2)C1` [Example 643, 1-(6-((4bS,8aS)-4b,7,7-trimethyl-2-((4-((S)-1-methylpyrrolidin-3-yl)phenyl)amino)-4b,7,8,8a-tetrahydropyrano[3′,4′:4,5]pyrrolo[2,3-d]pyrimidin-9(5H)-yl)pyridin-2-yl)pyrrolidin-2-one]: 0.01 to 0.1 µM. The value for `CN1C[C@@H]2C[C@H]1CN2c1ccc(Nc2ncc3c(n2)N(c2cccc(C4(O)CC4)n2)[C@H]2CC(C)(C)OC[C@@]32C)cc1` [Example 645, 1-(6-((4bS,8aS)-4b,7,7-trimethyl-2-((4-((1S,4S)-5-methyl-2,5-diazabicyclo[2.2.1]heptan-2-yl)phenyl)amino)-4b,7,8,8a-tetrahydropyrano[3′,4′:4,5]pyrrolo[2,3-d]pyrimidin-9(5H)-yl)pyridin-2-yl)cyclopropan-1-ol] was 0.1 to 1 µM; that for `CN1C[C@H]2C[C@@H]1CN2c1ccc(Nc2ncc3c(n2)N(c2cccc(C4(O)CC4)n2)[C@H]2CC(C)(C)OC[C@@]32C)cc1` [Example 647, 1-(6-((4bS,8aS)-4b,7,7-trimethyl-2-((4-((1R,4R)-5-methyl-2,5-diazabicyclo[2.2.1]heptan-2-yl)phenyl)amino)-4b,7,8,8a-tetrahydropyrano[3′,4′:4,5]pyrrolo[2,3-d]pyrimidin-9(5H)-yl)pyridin-2-yl)cyclopropan-1-ol] was 0.01 to 0.1 µM. `C[C@H]1CCC(=O)N1c1cccc(N2c3nc(Nc4ccc(N5C[C@@H]6C[C@H]5CN6C)cc4)ncc3[C@]3(C)COC(C)(C)C[C@H]23)n1` [Example 650, (S)-5-methyl-1-(6-((4bS,8aS)-4b,7,7-trimethyl-2-((4-((1S,4S)-5-methyl-2,5-diazabicyclo[2.2.1]heptan-2-yl)phenyl)amino)-4b,7,8,8a-tetrahydropyrano[3′,4′:4,5]pyrrolo[2,3-d]pyrimidin-9(5H)-yl)pyridin-2-yl)pyrrolidin-2-one] displayed a concentration for half-maximal inhibition (IC50) of 0.01 to 0.1 µM. `Cc1cc(Nc2ncc3c(n2)N(c2cccc(N4CCCC4=O)n2)[C@H]2CC(C)(C)OC[C@@]32C)ccc1N1C[C@@H]2C[C@H]1CN2C` [Example 653, 1-(6-((4bS,8aS)-4b,7,7-trimethyl-2-((3-methyl-4-((1S,4S)-5-methyl-2,5-diazabicyclo[2.2.1]heptan-2-yl)phenyl)amino)-4b,7,8,8a-tetrahydropyrano[3′,4′:4,5]pyrrolo[2,3-d]pyrimidin-9(5H)-yl)pyridin-2-yl)pyrrolidin-2-one] had an IC50 of 0.01 to 0.1 µM. Next, `Cc1cc(Nc2ncc3c(n2)N(c2cccc(N4CCOC4=O)n2)[C@H]2CC(C)(C)OC[C@@]32C)ccc1N1C[C@@H]2C[C@H]1CN2C` [Example 655, 3-(6-((4bS,8aS)-4b,7,7-trimethyl-2-((3-methyl-4-((1S,4S)-5-methyl-2,5-diazabicyclo[2.2.1]heptan-2-yl)phenyl)amino)-4b,7,8,8a-tetrahydropyrano[3′,4′:4,5]pyrrolo[2,3-d]pyrimidin-9(5H)-yl)pyridin-2-yl)oxazolidin-2-one]: 0.01 to 0.1 µM; `C[C@H]1CCC(=O)N1c1cccc(N2c3nc(Nc4ccc(N5C[C@H]6C[C@@H]5CN6C)cc4)ncc3[C@]3(C)COC(C)(C)C[C@H]23)n1` [Example 656, (S)-5-methyl-1-(6-((4bS,8aS)-4b,7,7-trimethyl-2-((4-((1R,4R)-5-methyl-2,5-diazabicyclo[2.2.1]heptan-2-yl)phenyl)amino)-4b,7,8,8a-tetrahydropyrano[3′,4′:4,5]pyrrolo[2,3-d]pyrimidin-9(5H)-yl)pyridin-2-yl)pyrrolidin-2-one]: 0.01 to 0.1 µM; `Cc1cc(Nc2ncc3c(n2)N(c2cccc(N4CCCC4=O)n2)[C@H]2CC(C)(C)OC[C@@]32C)ccc1N1C[C@H]2C[C@@H]1CN2C` [Example 659, 1-(6-((4bS,8aS)-4b,7,7-trimethyl-2-((3-methyl-4-((1R,4R)-5-methyl-2,5-diazabicyclo[2.2.1]heptan-2-yl)phenyl)amino)-4b,7,8,8a-tetrahydropyrano[3′,4′:4,5]pyrrolo[2,3-d]pyrimidin-9(5H)-yl)pyridin-2-yl)pyrrolidin-2-one]: 0.01 to 0.1 µM.

Take `Cc1cc(Nc2ncc3c(n2)N(c2cccc(N4CCOC4=O)n2)[C@H]2CC(C)(C)OC[C@@]32C)ccc1N1C[C@H]2C[C@@H]1CN2C` [Example 661, 3-(6-((4bS,8aS)-4b,7,7-trimethyl-2-((3-methyl-4-((1R,4R)-5-methyl-2,5-diazabicyclo[2.2.1]heptan-2-yl)phenyl)amino)-4b,7,8,8a-tetrahydropyrano[3′,4′:4,5]pyrrolo[2,3-d]pyrimidin-9(5H)-yl)pyridin-2-yl)oxazolidin-2-one]: the IC50 was 0.01 to 0.1 µM. The value for `CC1(C)C[C@@H]2N(c3cccc(N4CCCC4=O)n3)c3nc(Nc4ccc(C5CNC5)cc4)ncc3[C@]2(C)CO1` [Example 663, 1-(6-((4bS,8aS)-2-((4-(azetidin-3-yl)phenyl)amino)-4b,7,7-trimethyl-4b,7,8,8a-tetrahydropyrano[3′,4′:4,5]pyrrolo[2,3-d]pyrimidin-9(5H)-yl)pyridin-2-yl)pyrrolidin-2-one] was 0.01 to 0.1 µM; that for `CC1(C)C[C@@H]2N(c3cccc(N4CCOC4=O)n3)c3nc(Nc4ccc([C@]5(C)CCNC5)cc4)ncc3[C@]2(C)CO1` [Example 665, 3-(6-((4bS,8aS)-46,7,7-trimethyl-2-((4-((S)-3-methylpyrrolidin-3-yl)phenyl)amino)-4b,7,8,8a-tetrahydropyrano[3′,4′:4,5]pyrrolo[2,3-d]pyrimidin-9(5H)-yl)pyridin-2-yl)oxazolidin-2-one] was 0.01 to 0.1 µM.

As usually defined, the IC50 is the midpoint of a concentration-inhibition curve. Lower therefore signals higher potency.
